In test [1] the target is 5-hydroxytryptamine receptor 7 (Homo sapiens, UniProt P34969). In words: Binding affinity to 5HT7 receptor.
Test [2] addresses T1, 5-hydroxytryptamine receptor 1A (Homo sapiens, UniProt P08908).
T1 sequence (P08908 whole entry): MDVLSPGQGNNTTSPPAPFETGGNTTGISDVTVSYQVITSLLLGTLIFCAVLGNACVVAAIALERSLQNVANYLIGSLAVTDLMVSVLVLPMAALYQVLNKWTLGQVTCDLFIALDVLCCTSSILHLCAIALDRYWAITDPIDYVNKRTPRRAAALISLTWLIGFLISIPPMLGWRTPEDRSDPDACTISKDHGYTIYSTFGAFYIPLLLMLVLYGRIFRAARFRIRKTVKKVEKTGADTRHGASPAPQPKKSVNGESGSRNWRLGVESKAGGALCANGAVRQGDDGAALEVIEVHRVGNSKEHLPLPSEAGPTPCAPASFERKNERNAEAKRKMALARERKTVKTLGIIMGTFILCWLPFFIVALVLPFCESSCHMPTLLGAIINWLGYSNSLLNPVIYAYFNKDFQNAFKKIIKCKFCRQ
Briefly: Inhibition of 5HT1A receptor.

Sequence of 5-hydroxytryptamine receptor 7 (P34969 whole entry): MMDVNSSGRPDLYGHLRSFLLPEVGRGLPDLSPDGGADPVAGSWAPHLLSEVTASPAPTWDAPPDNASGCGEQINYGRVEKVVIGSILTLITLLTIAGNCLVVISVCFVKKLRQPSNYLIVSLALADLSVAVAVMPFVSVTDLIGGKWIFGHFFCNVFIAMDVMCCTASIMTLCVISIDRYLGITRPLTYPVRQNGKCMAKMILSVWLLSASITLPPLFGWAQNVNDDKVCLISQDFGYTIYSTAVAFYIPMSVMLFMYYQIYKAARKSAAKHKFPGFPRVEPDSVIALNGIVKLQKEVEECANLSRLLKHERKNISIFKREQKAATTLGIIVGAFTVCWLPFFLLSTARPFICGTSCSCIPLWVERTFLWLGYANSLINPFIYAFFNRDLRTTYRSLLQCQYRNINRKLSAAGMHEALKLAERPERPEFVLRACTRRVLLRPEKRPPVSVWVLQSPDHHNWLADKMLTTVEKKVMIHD

For the molecule `O=C1Nc2cccc3c2C1(CCCCN1CC=C(c2ccccc2)CC1)CCC3` (racemic), the affinity in test [1], expressed as Ki, was 3.31 nM. The same measure, in the same setting: the value for `O=C1Nc2cccc3c2C1(CCCCN1CCN(c2ccccc2)CC1)CCC3` (racemic) was 2.14 nM. In test [2], `COc1ccc2[nH]cc(CCCCN3CC=C(c4ccccc4)CC3)c2c1` yielded an IC50 of 20 nM. This lies in the double-digit nanomolar range. In test [2], `Oc1ccc2[nH]cc(CCCCN3CC=C(c4ccccc4)CC3)c2c1` [ROXINDOLE] had an IC50 of 0.8 nM.

In general, Ki refers to the equilibrium dissociation constant of an inhibitor or competing ligand from its target. Read a low Ki as a stronger hold on the target. By IC50 is commonly meant the concentration needed to halve the response being measured.
